Measurements as given in BindingDB's records for doi:10.1021/jm010294e (Novartis Institute For Biomedical Reasearch, 2001).

Molecular target: Apolipoprotein B-100 (Homo sapiens, UniProt P04114)
Experiment: Inhibition of apolipoprotein B (apoB) secreted by human hepatoma cells (Hep G2) […]

Chain of Apolipoprotein B-100 (P04114 whole entry C1422Y): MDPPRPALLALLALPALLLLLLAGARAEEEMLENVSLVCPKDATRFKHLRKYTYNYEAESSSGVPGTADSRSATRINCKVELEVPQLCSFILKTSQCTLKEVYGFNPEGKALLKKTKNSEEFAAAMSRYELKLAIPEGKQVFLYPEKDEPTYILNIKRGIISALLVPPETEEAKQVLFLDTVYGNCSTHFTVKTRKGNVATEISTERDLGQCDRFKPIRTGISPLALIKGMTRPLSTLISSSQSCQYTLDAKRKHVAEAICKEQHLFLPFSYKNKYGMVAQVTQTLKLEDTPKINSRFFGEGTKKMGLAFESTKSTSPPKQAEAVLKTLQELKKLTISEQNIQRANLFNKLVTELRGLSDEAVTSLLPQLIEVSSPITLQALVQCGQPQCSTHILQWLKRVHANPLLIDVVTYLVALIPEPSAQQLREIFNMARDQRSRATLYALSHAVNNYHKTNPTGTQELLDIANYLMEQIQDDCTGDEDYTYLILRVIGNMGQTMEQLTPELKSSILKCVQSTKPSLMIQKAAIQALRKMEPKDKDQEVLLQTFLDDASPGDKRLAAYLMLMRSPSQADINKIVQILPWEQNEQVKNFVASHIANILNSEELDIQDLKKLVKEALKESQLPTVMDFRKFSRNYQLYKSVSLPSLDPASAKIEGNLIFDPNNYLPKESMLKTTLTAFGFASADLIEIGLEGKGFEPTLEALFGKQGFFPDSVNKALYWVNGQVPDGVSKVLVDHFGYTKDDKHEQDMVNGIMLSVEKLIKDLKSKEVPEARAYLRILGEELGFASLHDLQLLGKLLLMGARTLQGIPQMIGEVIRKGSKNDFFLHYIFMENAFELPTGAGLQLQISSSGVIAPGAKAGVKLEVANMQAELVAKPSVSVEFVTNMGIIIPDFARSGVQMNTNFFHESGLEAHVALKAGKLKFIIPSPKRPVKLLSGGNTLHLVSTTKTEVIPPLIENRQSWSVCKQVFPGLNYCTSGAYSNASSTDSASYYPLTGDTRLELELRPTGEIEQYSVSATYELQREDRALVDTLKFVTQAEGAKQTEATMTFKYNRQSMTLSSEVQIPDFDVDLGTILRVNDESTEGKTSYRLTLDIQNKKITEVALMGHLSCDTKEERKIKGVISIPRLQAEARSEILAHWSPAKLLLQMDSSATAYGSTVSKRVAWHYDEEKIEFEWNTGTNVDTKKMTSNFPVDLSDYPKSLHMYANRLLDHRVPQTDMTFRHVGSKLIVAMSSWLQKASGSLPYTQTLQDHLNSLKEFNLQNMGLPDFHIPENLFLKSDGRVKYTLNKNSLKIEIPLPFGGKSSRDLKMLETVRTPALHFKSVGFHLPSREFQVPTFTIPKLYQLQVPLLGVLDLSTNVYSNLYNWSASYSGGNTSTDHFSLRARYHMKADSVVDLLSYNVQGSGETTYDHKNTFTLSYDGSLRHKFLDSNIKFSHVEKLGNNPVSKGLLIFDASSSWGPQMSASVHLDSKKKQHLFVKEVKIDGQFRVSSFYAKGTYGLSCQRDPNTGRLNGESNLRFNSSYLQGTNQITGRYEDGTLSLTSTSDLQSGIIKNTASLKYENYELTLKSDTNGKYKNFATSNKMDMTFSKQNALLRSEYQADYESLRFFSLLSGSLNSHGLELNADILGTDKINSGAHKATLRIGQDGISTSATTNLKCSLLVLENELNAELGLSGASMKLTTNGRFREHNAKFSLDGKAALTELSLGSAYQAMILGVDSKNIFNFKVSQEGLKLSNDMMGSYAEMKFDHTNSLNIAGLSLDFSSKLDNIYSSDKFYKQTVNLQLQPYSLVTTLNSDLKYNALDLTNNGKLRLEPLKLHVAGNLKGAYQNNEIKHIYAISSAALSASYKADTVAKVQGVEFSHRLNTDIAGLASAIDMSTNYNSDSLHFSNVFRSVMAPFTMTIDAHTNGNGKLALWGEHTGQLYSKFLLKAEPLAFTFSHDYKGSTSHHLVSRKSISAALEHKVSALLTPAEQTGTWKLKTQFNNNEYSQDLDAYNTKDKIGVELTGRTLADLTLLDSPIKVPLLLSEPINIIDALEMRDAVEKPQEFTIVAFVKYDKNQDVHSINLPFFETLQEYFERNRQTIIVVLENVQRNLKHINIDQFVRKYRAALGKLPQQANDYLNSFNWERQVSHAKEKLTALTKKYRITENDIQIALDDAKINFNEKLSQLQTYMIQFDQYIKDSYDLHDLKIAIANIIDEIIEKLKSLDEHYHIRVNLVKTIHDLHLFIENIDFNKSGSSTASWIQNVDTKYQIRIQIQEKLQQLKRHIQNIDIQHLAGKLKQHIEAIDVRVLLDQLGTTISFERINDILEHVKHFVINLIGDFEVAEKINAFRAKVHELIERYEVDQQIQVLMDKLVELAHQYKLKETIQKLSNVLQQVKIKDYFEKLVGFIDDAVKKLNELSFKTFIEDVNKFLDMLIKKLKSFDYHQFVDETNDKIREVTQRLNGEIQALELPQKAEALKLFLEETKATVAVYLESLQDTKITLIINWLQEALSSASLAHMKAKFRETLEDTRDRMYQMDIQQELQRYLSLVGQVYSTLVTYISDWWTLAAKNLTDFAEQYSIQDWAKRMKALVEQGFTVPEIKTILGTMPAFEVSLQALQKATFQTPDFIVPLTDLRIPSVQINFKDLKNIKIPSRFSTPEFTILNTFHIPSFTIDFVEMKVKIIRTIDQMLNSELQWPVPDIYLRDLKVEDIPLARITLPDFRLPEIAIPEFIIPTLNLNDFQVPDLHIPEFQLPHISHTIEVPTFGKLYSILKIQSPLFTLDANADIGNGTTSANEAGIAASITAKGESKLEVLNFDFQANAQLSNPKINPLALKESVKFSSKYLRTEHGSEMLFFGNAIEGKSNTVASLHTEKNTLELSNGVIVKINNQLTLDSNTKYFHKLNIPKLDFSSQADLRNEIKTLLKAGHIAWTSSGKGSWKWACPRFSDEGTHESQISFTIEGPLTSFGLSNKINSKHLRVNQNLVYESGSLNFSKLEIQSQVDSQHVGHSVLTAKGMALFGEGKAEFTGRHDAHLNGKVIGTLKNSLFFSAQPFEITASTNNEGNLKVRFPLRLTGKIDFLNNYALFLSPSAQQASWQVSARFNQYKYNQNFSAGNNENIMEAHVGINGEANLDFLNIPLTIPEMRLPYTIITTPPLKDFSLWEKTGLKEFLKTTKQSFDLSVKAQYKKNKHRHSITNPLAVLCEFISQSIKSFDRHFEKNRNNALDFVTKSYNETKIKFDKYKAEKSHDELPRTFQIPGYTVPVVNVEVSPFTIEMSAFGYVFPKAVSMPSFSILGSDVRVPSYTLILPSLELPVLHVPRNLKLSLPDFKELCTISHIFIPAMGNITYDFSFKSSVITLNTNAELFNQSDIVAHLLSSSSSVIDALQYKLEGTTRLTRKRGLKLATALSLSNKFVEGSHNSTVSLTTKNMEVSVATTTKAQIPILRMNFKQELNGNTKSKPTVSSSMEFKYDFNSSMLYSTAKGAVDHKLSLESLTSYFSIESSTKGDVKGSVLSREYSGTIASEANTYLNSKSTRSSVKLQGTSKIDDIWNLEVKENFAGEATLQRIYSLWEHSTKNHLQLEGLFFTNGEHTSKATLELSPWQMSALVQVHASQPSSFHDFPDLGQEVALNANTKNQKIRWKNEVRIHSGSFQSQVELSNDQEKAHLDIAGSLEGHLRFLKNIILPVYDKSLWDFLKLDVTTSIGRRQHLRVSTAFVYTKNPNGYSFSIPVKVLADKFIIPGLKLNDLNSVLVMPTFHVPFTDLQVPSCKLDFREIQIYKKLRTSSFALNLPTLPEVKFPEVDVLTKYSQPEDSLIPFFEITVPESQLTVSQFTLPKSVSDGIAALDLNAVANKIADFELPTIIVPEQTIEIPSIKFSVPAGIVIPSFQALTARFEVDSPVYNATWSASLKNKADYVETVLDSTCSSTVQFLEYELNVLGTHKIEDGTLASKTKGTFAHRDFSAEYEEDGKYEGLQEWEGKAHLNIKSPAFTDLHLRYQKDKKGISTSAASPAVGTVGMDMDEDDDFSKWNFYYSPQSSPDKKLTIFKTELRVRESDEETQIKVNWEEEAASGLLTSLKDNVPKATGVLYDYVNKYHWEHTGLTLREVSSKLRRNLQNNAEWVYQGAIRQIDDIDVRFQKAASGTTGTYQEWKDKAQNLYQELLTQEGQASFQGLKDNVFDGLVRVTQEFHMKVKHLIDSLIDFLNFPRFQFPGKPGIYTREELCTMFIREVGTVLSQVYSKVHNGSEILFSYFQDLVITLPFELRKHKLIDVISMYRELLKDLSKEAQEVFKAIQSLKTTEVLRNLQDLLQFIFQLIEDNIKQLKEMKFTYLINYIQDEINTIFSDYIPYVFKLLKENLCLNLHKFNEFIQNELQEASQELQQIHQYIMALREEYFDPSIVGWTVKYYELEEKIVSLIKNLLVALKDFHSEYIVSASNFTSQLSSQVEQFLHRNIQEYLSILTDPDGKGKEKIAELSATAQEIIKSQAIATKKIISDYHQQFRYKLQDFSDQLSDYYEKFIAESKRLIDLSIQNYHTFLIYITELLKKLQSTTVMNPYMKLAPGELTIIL

Compound	IC50
Cc1cccc(C(=O)Nc2ccc3c(c2)CC(NS(C)(=O)=O)C3)c1-c1ccc(F)cc1 (configuration not stated) [4'-Fluoro-6-methyl-biphenyl-2-carboxylic acid (2-methanesulfonylamino-indan-5-yl)-amide]	8.3 nM
Cc1cccc(C(=O)Nc2ccc3c(c2)CC(NS(=O)(=O)c2ccccc2)C3)c1-c1ccc(C#N)cc1 (configuration not stated) [4'-Cyano-6-methyl-biphenyl-2-carboxylic acid (2-benzenesulfonylamino-indan-5-yl)-amide]	5.5 nM
Cc1cc(C)c(-c2ccc(C(F)(F)F)cc2)c(C(=O)Nc2ccc3c(c2)C[C@H](NS(=O)(=O)c2cccs2)C3)c1 [4,6-Dimethyl-4'-trifluoromethyl-biphenyl-2-carboxylic acid [2-(thiophene-2-sulfonylamino)-indan-5-yl]-amide]	1 nM
Cc1cccc(C(=O)Nc2ccc3c(c2)CCC(NS(C)(=O)=O)CC3)c1-c1ccc(C(F)(F)F)cc1 (configuration not stated) [6-Methyl-4'-trifluoromethyl-biphenyl-2-carboxylic acid (7-methanesulfonylamino-6,7,8,9-tetrahydro-5H-benzocyclohepten-2-yl)-amide]	2.3 nM
Cc1cccc(C(=O)Nc2ccc3c(c2)CC(NS(=O)(=O)c2ccccc2)C3)c1-c1ccc(F)cc1 (configuration not stated) [4'-Fluoro-6-methyl-biphenyl-2-carboxylic acid (2-benzenesulfonylamino-indan-5-yl)-amide]	1.2 nM
CN(C)C(=O)NC1Cc2ccc(NC(=O)c3ccccc3-c3ccc(C(F)(F)F)cc3)cc2C1 (configuration not stated) [4'-Trifluoromethyl-biphenyl-2-carboxylic acid [2-(3,3-dimethyl-ureido)-indan-5-yl]-amide]	120 nM
O=C(Nc1ccc2c(c1)CC(NCc1ccccc1)C2)c1ccccc1-c1ccc(C(F)(F)F)cc1 (configuration not stated) [4'-Trifluoromethyl-biphenyl-2-carboxylic acid (2-benzylamino-indan-5-yl)-amide]	340 nM
Cc1cccc(C(=O)Nc2ccc3c(c2)CC(NS(=O)(=O)c2ccccc2)C3)c1-c1ccc(Cl)cc1 (configuration not stated) [4'-Chloro-6-methyl-biphenyl-2-carboxylic acid (2-benzenesulfonylamino-indan-5-yl)-amide]	2.4 nM
Cc1cccc(C(=O)Nc2ccc3c(c2)CC(NS(=O)(=O)c2cccs2)C3)c1-c1ccc(F)cc1 (configuration not stated) [4'-Fluoro-6-methyl-biphenyl-2-carboxylic acid [2-(thiophene-2-sulfonylamino)-indan-5-yl]-amide]	1.4 nM
O=C(Nc1ccc2c(c1)CC(NS(=O)(=O)c1ccccc1)C2)c1ccccc1-c1ccc(C(F)(F)F)cc1 (configuration not stated) [4'-Trifluoromethyl-biphenyl-2-carboxylic acid (2-benzenesulfonylamino-indan-5-yl)-amide]	1.3 nM
Cc1cccc(C(=O)Nc2ccc3c(c2)CCC(NS(C)(=O)=O)CC3)c1-c1ccc(Cl)cc1 (configuration not stated) [4'-Chloro-6-methyl-biphenyl-2-carboxylic acid (7-methanesulfonylamino-6,7,8,9-tetrahydro-5H-benzocyclohepten-2-yl)-amide]	5 nM
Cc1cccc(C(=O)Nc2ccc3c(c2)C[C@@H](NS(C)(=O)=O)C3)c1-c1ccc(C(F)(F)F)cc1 [6-Methyl-4'-trifluoromethyl-biphenyl-2-carboxylic acid (2-methanesulfonylamino-indan-5-yl)-amide]	8.8 nM
O=C(Nc1ccc2c(c1)C[C@@H](NS(=O)(=O)c1ccccc1)C2)c1ccccc1-c1ccc(C(F)(F)F)cc1 [4'-Trifluoromethyl-biphenyl-2-carboxylic acid (2-benzenesulfonylamino-indan-5-yl)-amide]	42 nM
Cc1ccc(-c2c(C)cccc2C(=O)Nc2ccc3c(c2)CC(NS(=O)(=O)c2ccccc2)C3)cc1 (configuration not stated) [6,4'-Dimethyl-biphenyl-2-carboxylic acid (2-benzenesulfonylamino-indan-5-yl)-amide]	2.5 nM
Cc1cccc(C(=O)Nc2ccc3c(c2)CC(CNS(C)(=O)=O)C3)c1-c1ccc(C(F)(F)F)cc1 (configuration not stated) [6-Methyl-4'-trifluoromethyl-biphenyl-2-carboxylic acid [2-(methanesulfonylamino-methyl)-indan-5-yl]-amide]	6.5 nM
CC(=O)NC1Cc2ccc(NC(=O)c3ccccc3-c3ccc(C(F)(F)F)cc3)cc2C1 (configuration not stated) [4'-Trifluoromethyl-biphenyl-2-carboxylic acid (2-acetylamino-indan-5-yl)-amide]	120 nM
COC(=O)N1CCN([C@H]2Cc3ccc(NC(=O)c4cccc(C)c4-c4ccc(C(F)(F)F)cc4)cc3C2)CC1 [4-{5-[(6-Methyl-4'-trifluoromethyl-biphenyl-2-carbonyl)-amino]-indan-2-yl}-piperazine-1-carboxylic acid methyl ester]	1.8 nM

Now from value to compound:

IC50	Compound
2.4 nM	COC(=O)NC1CCc2ccc(NC(=O)c3cc(C)cc(C)c3-c3ccc(C(F)(F)F)cc3)cc2CC1 (configuration not stated) [{2-[(4,6-Dimethyl-4'-trifluoromethyl-biphenyl-2-carbonyl)-amino]-6,7,8,9-tetrahydro-5H-benzocyclohepten-7-yl}-carbamic acid methyl ester]
12 nM	O=C(Nc1ccc2c(c1)CC(NS(=O)(=O)c1ccccc1)C2)c1ccccc1-c1ccccc1 (configuration not stated) [Biphenyl-2-carboxylic acid (2-benzenesulfonylamino-indan-5-yl)-amide]
8.7 nM	COC(=O)NCC1Cc2ccc(NC(=O)c3cccc(C)c3-c3ccc(Cl)cc3)cc2C1 (configuration not stated) [{5-[(4'-Chloro-6-methyl-biphenyl-2-carbonyl)-amino]-indan-2-ylmethyl}-carbamic acid methyl ester]
1.9 nM	Cc1cccc(C(=O)Nc2ccc3c(c2)CC(CNS(=O)(=O)c2cccs2)C3)c1-c1ccc(C(F)(F)F)cc1 (configuration not stated) [6-Methyl-4'-trifluoromethyl-biphenyl-2-carboxylic acid {2-[(thiophene-2-sulfonylamino)-methyl]-indan-5-yl}-amide]
7.5 nM	COC(=O)N[C@H]1Cc2ccc(NC(=O)c3cc(C(F)(F)F)ccc3-c3ccc(C(F)(F)F)cc3)cc2C1 [{5-[(4,4'-Bis-trifluoromethyl-biphenyl-2-carbonyl)-amino]-indan-2-yl}-carbamic acid methyl ester]
2.2 nM	COC(=O)NCC1Cc2ccc(NC(=O)c3cc(C)cc(C)c3-c3ccc(C(F)(F)F)cc3)cc2C1 (configuration not stated) [{5-[(4,6-Dimethyl-4'-trifluoromethyl-biphenyl-2-carbonyl)-amino]-indan-2-ylmethyl}-carbamic acid methyl ester]
2.5 nM	COC(=O)N[C@@H]1Cc2ccc(NC(=O)c3cc(C)cc(C)c3-c3ccc(C(F)(F)F)cc3)cc2C1 [{5-[(4,6-Dimethyl-4'-trifluoromethyl-biphenyl-2-carbonyl)-amino]-indan-2-yl}-carbamic acid methyl ester]
6.4 nM	COC(=O)N[C@@H]1Cc2ccc(NC(=O)c3cccc(C)c3-c3ccc(C(F)(F)F)cc3)cc2C1 [(R)-methyl 5-(6-methyl-4'-(trifluoromethyl)biphenyl-2-ylcarboxamido)-2,3-dihydro-1H-inden-2-ylcarbamate]
1.6 nM	Cc1cccc(C(=O)Nc2ccc3c(c2)CCC(NS(=O)(=O)c2cccs2)CC3)c1-c1ccc(C(F)(F)F)cc1 (configuration not stated) [6-Methyl-4'-trifluoromethyl-biphenyl-2-carboxylic acid [7-(thiophene-2-sulfonylamino)-6,7,8,9-tetrahydro-5H-benzocyclohepten-2-yl]-amide]
1.7 nM	Cc1cccc(C(=O)Nc2ccc3c(c2)C[C@@H](NCc2ccccn2)C3)c1-c1ccc(C(F)(F)F)cc1 [(S)-6-methyl-N-(2-(pyridin-2-ylmethylamino)-2,3-dihydro-1H-inden-5-yl)-4'-(trifluoromethyl)biphenyl-2-carboxamide]
1.6 nM	COC(=O)NC1CCc2ccc(NC(=O)c3cccc(C)c3-c3ccc(C(F)(F)F)cc3)cc2CC1 (configuration not stated) [{2-[(6-Methyl-4'-trifluoromethyl-biphenyl-2-carbonyl)-amino]-6,7,8,9-tetrahydro-5H-benzocyclohepten-7-yl}-carbamic acid methyl ester]
2 nM	COC(=O)NC1CCc2ccc(NC(=O)c3cccc(C)c3-c3ccc(Cl)cc3)cc2CC1 (configuration not stated) [{2-[(4'-Chloro-6-methyl-biphenyl-2-carbonyl)-amino]-6,7,8,9-tetrahydro-5H-benzocyclohepten-7-yl}-carbamic acid methyl ester]
0.7 nM	COC(=O)N[C@H]1Cc2ccc(NC(=O)c3cccc(C)c3-c3ccc(C(F)(F)F)cc3)cc2C1 [{5-[(6-Methyl-4'-trifluoromethyl-biphenyl-2-carbonyl)-amino]-indan-2-yl}-carbamic acid methyl ester]
0.9 nM	Cc1cccc(C(=O)Nc2ccc3c(c2)C[C@H](NS(=O)(=O)c2cccs2)C3)c1-c1ccc(C(F)(F)F)cc1 [6-Methyl-4'-trifluoromethyl-biphenyl-2-carboxylic acid [2-(thiophene-2-sulfonylamino)-indan-5-yl]-amide]
1.9 nM	COC(=O)N[C@H]1Cc2ccc(NC(=O)c3ccccc3-c3ccc(C(F)(F)F)cc3)cc2C1 [{5-[(4'-Trifluoromethyl-biphenyl-2-carbonyl)-amino]-indan-2-yl}-carbamic acid methyl ester]
4.1 nM	COC(=O)NCC1Cc2ccc(NC(=O)c3cccc(C)c3-c3ccc(C(F)(F)F)cc3)cc2C1 (configuration not stated) [{5-[(6-Methyl-4'-trifluoromethyl-biphenyl-2-carbonyl)-amino]-indan-2-ylmethyl}-carbamic acid methyl ester]
1.8 nM	COC(=O)N[C@H]1Cc2ccc(NC(=O)c3cccc(C(F)(F)F)c3-c3ccc(C(F)(F)F)cc3)cc2C1 [{5-[(6,4'-Bis-trifluoromethyl-biphenyl-2-carbonyl)-amino]-indan-2-yl}-carbamic acid methyl ester]
1.1 nM	COC(=O)N[C@H]1Cc2ccc(NC(=O)c3cc(C)cc(C)c3-c3ccc(C(F)(F)F)cc3)cc2C1 [{5-[(4,6-Dimethyl-4'-trifluoromethyl-biphenyl-2-carbonyl)-amino]-indan-2-yl}-carbamic acid methyl ester]
2.2 nM	COC(=O)N[C@H]1Cc2ccc(NC(=O)c3cc(C)ccc3-c3ccc(C(F)(F)F)cc3)cc2C1 [{5-[(4-Methyl-4'-trifluoromethyl-biphenyl-2-carbonyl)-amino]-indan-2-yl}-carbamic acid methyl ester]
3.4 nM	COC(=O)NC1Cc2ccc(NC(=O)c3cc(C)cc(C)c3-c3ccc(Cl)cc3)cc2C1 (configuration not stated) [{5-[(4'-Chloro-4,6-dimethyl-biphenyl-2-carbonyl)-amino]-indan-2-yl}-carbamic acid methyl ester]
